Experimental data: article PMC11089505, “Structural Elucidation and Antiviral Activity of Covalent Cathepsin L Inhibitors” (Journal of Medicinal Chemistry, 2024)
“And” between values parts separate entries of the source, which are not always exact repeats. Equal entries are not always repeated.

Tested on: SARS-CoV-2 Omicron variant BA.1 in Vero E6 cells
Experiment: microbe, parasite or virus in culture
Assay type: cell-based

Compound	% RNA (qRT-PCR)	reduction of quantity of viral RNA	EC50 (Severe acute respiratory syndrome coronavirus 2, Vero C1008, 24 h, read-out: EC50 (qRT-PCR)) [nM]
CCC(CC)COC(=O)[C@H](C)N[P@](=O)(OC[C@H]1O[C@@](C#N)(c2ccc3c(N)ncnn23)[C@H](O)[C@@H]1O)Oc1ccccc1 [Remdesivir]	124.5% and 63.1%		
CCCC(NC(=O)C(CC(C)C)NC(=O)OCc1ccccc1)C(=O)C(=O)NCc1ccccn1 (stereo not drawn) [CI-XII, Benzyl N-[1-[[1.2-dioxo-1-(pyridin-2-ylmethylamino)hexan-3-yl]amino]-4-methyl-1-oxopentan-2-yl]carbamate]		more than 50%	< 100
